Molecules are shown by their SMILES. Read-outs that look alike come from different tables or passages of the source.

The target in experiment [1] is human uPA (Homo sapiens, UniProt P00749). The experiment can be described thus: Inhibition of human uPA (urokinase), chromogenic substrate Bz-βAla-Gly-Arg-pNA, Ki according to Dixon. Type of experiment: biochemical. On the procedure:
The measurements were carried out on a microplate reader at 25° C.
(§1) The measurements were carried out on a microplate reader at 25° C. […] The Ki-values for the respective inhibitors were calculated according to Dixon34 using a linear regression proaram. Bz-βAla-Gly-Arg-pNA was used as the substrate for human uPA and Tos-Gly-Pro-Lys-pNA for human plasmin.

Experiment [2] addresses human plasmin (Homo sapiens, UniProt P00747). The experiment can be described thus: Inhibition of human plasmin, chromogenic substrate Tos-Gly-Pro-Lys-pNA, Ki according to Dixon. Type of experiment: biochemical. As to the method: The measurements were carried out on a microplate reader at 25′C.
as §1

The mark [3] stands for this setting: comparative inhibitor compositions, 0.1% inhibitor and 99.9% of glycerine 86%, 25° C., pH 8.0, Dixon, read-out: Ki for plasmin inhibition.

Sequence of human plasmin (P00747 581-810 limits assumed): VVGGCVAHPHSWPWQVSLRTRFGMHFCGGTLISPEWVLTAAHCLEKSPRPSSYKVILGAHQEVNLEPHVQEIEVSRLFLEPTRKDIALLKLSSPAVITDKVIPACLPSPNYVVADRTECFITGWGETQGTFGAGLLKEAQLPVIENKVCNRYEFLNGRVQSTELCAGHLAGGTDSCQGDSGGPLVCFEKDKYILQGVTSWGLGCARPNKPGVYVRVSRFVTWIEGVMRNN
Sequence of human plasmin (P00747 97-580 partner limits assumed): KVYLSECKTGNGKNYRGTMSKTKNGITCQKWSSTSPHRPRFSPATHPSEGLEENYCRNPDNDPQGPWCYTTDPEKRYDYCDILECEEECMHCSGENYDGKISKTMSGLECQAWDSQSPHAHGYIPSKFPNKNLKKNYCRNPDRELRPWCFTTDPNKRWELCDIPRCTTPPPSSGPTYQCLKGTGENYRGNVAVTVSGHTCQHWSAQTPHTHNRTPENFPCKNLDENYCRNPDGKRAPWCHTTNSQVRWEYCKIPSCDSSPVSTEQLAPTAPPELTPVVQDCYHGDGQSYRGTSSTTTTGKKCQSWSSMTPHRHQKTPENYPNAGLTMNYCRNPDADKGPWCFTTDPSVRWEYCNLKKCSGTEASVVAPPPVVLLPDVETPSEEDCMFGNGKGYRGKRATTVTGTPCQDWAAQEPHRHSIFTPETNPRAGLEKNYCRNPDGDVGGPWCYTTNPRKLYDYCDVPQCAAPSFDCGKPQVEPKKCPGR

Regarding `N=C(N)c1ccc(CNC(=O)C(CCCCN)NC(=O)C(CO)NS(=O)(=O)Cc2ccccc2)cc1` [Benzylsulfonyl-D-Ser-Lys-(4-amidino-benzylamide), reference compound], the Ki stood at 0.024 µM in experiment [1] (comparative inhibitor compositions, 0.1% inhibitor and 99.9% of glycerine 86%, 25° C., pH 8.0, Dixon, read-out: Ki for uPA inhibition); 0.36 µM in experiment [2] (setting [3]). Regarding `CC(NC(=O)C(CO)NS(=O)(=O)Cc1ccccc1)C(=O)NCc1ccc(C(=N)N)cc1` [Benzylsulfonyl-D-Ser-Ala-(4-amidino-benzylamide)], in experiment [2] (setting [3]), the Ki amounted to 0.54 µM. The same measure, in the same setting: the result for `N=C(N)c1ccc(CNC(=O)CNC(=O)[C@@H](CO)NS(=O)(=O)Cc2ccccc2)cc1` [Benzylsulfonyl-D-Ser-Gly-(4-amidino-benzylamide)] reads 11 µM. For the compound `N=C(N)c1ccc(CNC(=O)C(CCc2ccccc2)NC(=O)C(CO)NS(=O)(=O)Cc2ccccc2)cc1` [benzylsulfonyl-D-Ser-homoPhe-(4-amidino-benzylamide)], the Ki in experiment [1] is 0.028 µM; in experiment [2], 0.036 µM. Further, in experiment [2] (compared to the Gly, Ala and Lys analogues of WO2009/026949), the “Ki for plasmin inhibition compared to 3 other 4-amidino benzylamines” value is “an order of magnitude better”.

The values above are taken from patent US20150174021A1, “COSMETIC COMPOSITION COMPRISING BENZYLSULFONYL-D-SER-HOMOPHE-(4-AMIDINO-BENZYLAMIDE) AND A POLYALCOHOL” (DSM IP ASSETS B.V., priority 2012, published 2015).
